Assay: Release test for budesonide, USP XXIII <711> Dissolution, apparatus 2 (paddle), 100 revolutions/min
Assay type: physicochemical
Experimental: The release test for budesonide is carried out in accordance with USP XXIII monograph <711> “Dissolution” with apparatus 2 (paddle) with 100 revolutions/min in phosphate buffer of pH 7.5 according to the monograph “Intestinal Fluid, Simulated, TS” without addition of pepsin or in purified water with the paddle at 100 revolutions/min with 500 ml of dissolving medium. 400 mg of sample were weighed for each determination. Detection took place by means of HPLC with a PP 18 column, 10 cm (Phenomenex) and UV detection at 246 nm. Equipment: pump L 7000 100 (from Merck-Hitachi, Darmstadt, Germany), autosampler L 7000 200 (from Merck-Hitachi, Darmstadt, Germany) UV/VIS detector L 4250 (from Merck-Hitachi, Darmstadt, Germany). The volume injected was 100 μl, and the flow rate was 1 ml/min. The retention times averaged 2.5 min. At the end of the test, the pellets were homogenized with an Ultra Turrax for 10 min. The content was used as 100% value in the calculation. 3 to 6 tests were carried out for each medium.
The pellets release the active ingredient under the indicated conditions in vitro as described below. At the end of the test, the pellets were homogenized using an Ultra Turrax for 10 min, and the budesonide concentration in the solution was again determined. The latter measurement was used as 100% value (theoretically possible budesonide content in the solution) in the calculation.

CCCC1O[C@@H]2C[C@H]3[C@@H]4CCC5=CC(=O)C=C[C@]5(C)[C@H]4[C@@H](O)C[C@]3(C)[C@]2(C(=O)CO)O1 (stereo partly shown) [Example 1, budesonide]
Release in purified water and phosphate buffer of pH 7.5, Mean (time 0 min): 0.0 % of theory | Release in purified water and phosphate buffer of pH 7.5, Mean (time 60 min): ca. 3.7 % of theory | Release in purified water and phosphate buffer of pH 7.5, Mean (time 120 min): ca. 5.4 % of theory | Release in purified water and phosphate buffer of pH 7.5, Mean (time 180 min): ca. 7.1 % of theory
